Laboratory results as given in patent publication US20030216569A1, “Method of making HIV protease inhibitors” (priority 1993, published 2003).
Values after ≈ are worked out from the molar mass of the structure shown. Values joined by “and” are separate entries in the source; they are usually repeats but may differ in a detail not shown here. Equal entries are not always repeated.

System: HIV-1 isolates IIIB and/or RF in CEM cells
Assay: SRI primary anti-HIV screen, MTT assay of inhibition of HIV-induced cell killing in CEM cells
Type: cell-based
Settings: for SRI CEM IC50: CEM cells; for IC50: Human immunodeficiency virus 1, IIIB, CCRF-CEM, read-out: SRI CEM IC50 ng/mL, CEM cells
Method: A. Principle of MTT Assay:
This assay involves the conversion of the tetrazolium dye MTT to a colored formazan product by mitochondrial enzymes in metabolically active cells. This assay system is used at SRI to screen over 30,000 compounds per year. Briefly, the assay involves the infection of CEM or MT2 cells in round bottom 96-well plates. The compound of interest is added just prior to infection. Following 6 days of incubation at 37° C. the plates are stained with MTT. The results of the assay are quantitated spectrophotometrically on a Molecular Devices Vmax plate reader. The data are analyzed by linear regression utilizing an in-house software program to calculate antiviral activity (IC25, IC50, IC95) and toxicity (TC25, TC50, TC95) as well as other values.
Primary antiviral assays are routinely performed in CEM or MT-2 cells.
B. Standard Screening Assays in CEM and MT-2 Cells
1. Compound dilution and delivery to the plates
Drugs are solubilized in the appropriate vehicle such as distilled water or DMSO if necessary. Latex gloves, lab coats and masks are used during all phases of the handling process to prevent exposure to potentially harmful agents. The drug is prepared at the appropriate concentration and stored at −20° C. until used by the screening laboratory. The first dilution of each compound is made in a dilution tube with medium to yield a concentration two-fold that of the highest test concentration. Sterile titer tubes are then used to make serial one half-log dilutions of each compound. Following drug dilution, the diluted compound is added to the appropriate well of a 96-well microtiter plate. Up to 12 dilutions can be assayed conveniently in triplicate on a single plate with all appropriate controls including cell control, virus control, toxicity control, drug color control, medium control and plastic (background) control. When testing includes only six dilutions, two drugs can be assayed on a single microtiter plate. The drugs are added to the plate in a final volume of 100 microliters.
During the time the drug dilutions are prepared, cells are washed and counted. Viability is monitored by trypan blue dye exclusion and assays are not performed if the viability falls below 90%. Cells are maintained in an exponential growth phase and are split 1:2 on the day prior to assay to assure exponential growth rate.
For the primary screen, the cell lines utilized are CEM and MT-2. Unless otherwise indicated, the medium used is RPMI 1640 with 10% heat-inactivated fetal calf serum (FBS), glutamine and antibiotics.
Cells are propagated at 37° C. in an atmosphere of 5% CO2 in air. The virus employed for this work is HIV-1 isolates IIIB and/or RF, which are prepared by an acute infection process.
Briefly, virus-infected cells are pelleted on a daily basis beginning at three days post-infection until the virus has killed all of the cells in the culture. Reverse transcriptase activity and p24 ELISA are used to identify pools with the greatest amout of virus.
These 24-hour harvests are pooled, filtered and frozen at −90° C. Prior to use in the assay, the infectious pool of virus is titered on all available cell lines in order to determine the amount of virus required in the antiviral assay.
In general, pools produced by the acute infection method require the addition of one microliter of infectious virus per well resulting in the screening of drugs at a multiplicity of infection of 0.01. In this manner, enough virus is prepared and frozen to complete over one thousand microtiter plates, allowing the testing of up to two thousand compounds from a single stock of infectious virus.
Virus infection of the CEM and MT-2 cells for the antiviral assay is carried out in a bulk infection process.

Row | Compound | SRI CEM IC50 | IC50
1 | CC(C)(C)NC(=O)C1CC2CCCCC2CN1CC(O)C(Cc1ccccc1)NC(=O)c1cccc(O)c1F (stereo not drawn) [Example 1, [3S-(3R*,4aR*,8aR*,2′S*,3′R*)]-2-[2′-Hydroxy-3′-phenylmethyl-4′-aza-5′-oxo-5′-(2″-fluoro-3″-hydroxyphenyl)pentyl]decahydroisoquinoline-3-N-t-butylcarboxamide] | 1.38 µg/mL | 1000 ng/mL (≈ 1.85 µM)
2 | CC(C)(C)NC(=O)C1CC2CCCCC2CN1CC(O)C(Cc1ccccc1)NC(=O)c1cccnc1Cl (stereo not drawn) [Example 2, [3S-(3R*,4aR*,8aR*,2′S*,3′R*)]-2-[2′-Hydroxy-3′-phenylmethyl-4′-aza-5′-oxo-5′-(2″-chloro-pyrid-3″-yl)pentyl] decahydroisoquinoline-3-N-t-butylcarboxamide] | 1.58 µg/mL | 1380 ng/mL (≈ 2.55 µM)
3 | CCc1c(O)cccc1C(=O)NC(Cc1ccccc1)C(O)CN1CC2CCCCC2CC1C(=O)NC(C)(C)C (stereo not drawn) [Example 3, [3S-(3R*,4aR*,8aR*,2′S*,3′R*)]-2-[2′-Hydroxy-3′-phenylmethyl-4′-aza-5′-oxo-5′-(2″-ethyl-3″-hydroxyphenyl)pentyl] decahydroisoguinoline-3-N-t-butylcarboxamide] | 0.0113 µg/mL | 15.2 ng/mL (≈ 0.0276 µM)
4 | CC(C)(C)NC(=O)C1CC2CCCCC2CN1CC(O)C(Cc1ccccc1)NC(=O)c1ccc[n+]([O-])c1 (stereo not drawn) [Example 5, [3S-(3R*,4aR*,8aR*,2′S*,3′R*)]-2-[2′-Hydroxy-3′-phenylmethyl-4′-aza-5′-oxo-5′-(pyrid-3″yl-N-oxidyl)pentyl] decahydroisoquinoline-3-N-t-butylcarboxamide] | 4.43 µg/mL | 4970 ng/mL (≈ 9.51 µM)
5 | CC(C)(C)NC(=O)C1CC2CCCCC2CN1CC(O)C(Cc1ccccc1)NC(=O)c1cccc(O)c1Cl (stereo not drawn) [Example 11, [3S-(3R*,4aR*,8aR*,2′S*,3′R*)]-2-[2′-Hydroxy-3′-phenylmethyl-4′-aza-5′-oxo-5′-(2″-chloro-3″-hydroxyphenyl)pentyl] decahydroisoquinoline-3-N-t-butylcarboxamide] | 0.338 µg/mL | 420 ng/mL (≈ 0.755 µM)
6 | Cc1c(O)cccc1C(=O)NC(Cc1ccccc1)C(O)CN1CC2CCCCC2CC1C(=O)NC(C)(C)C (stereo not drawn) [Example 12, [3S-(3R*,4aR*,8aR*,2′S*,3′R*)]-2-[2′-Hydroxy-3′-phenylmethyl-4′-aza-5′-oxo-5′-(2″-methyl-3″-hydroxyphenyl)pentyl] decahydroisoquinoline-3-N-t-butylcarboxamide] | 0.0118 µg/mL | 16.5 ng/mL (≈ 0.0308 µM)
7 | CC(C)(C)NC(=O)C1CC2CCCCC2CN1CC(O)C(Cc1ccccc1)NC(=O)c1ccccc1C(F)(F)F (stereo not drawn) [Example 15, [3S-(3R*,4aR*,8aR*,2′S*,3′R*)]-2-[2′-Hydroxy-3′-phenylmethyl-4′-aza-5′-oxo-5′-(2″-trifluoromethylphenyl)pentyl] decahydroisoquinoline-3-N-t-butylcarboxamide] | 1.59 µg/mL | 1430 ng/mL (≈ 2.49 µM)
8 | CC(C)(C)NC(=O)C1CC2CCCCC2CN1CC(O)C(Cc1ccccc1)NC(=O)c1c(Cl)ccc(O)c1Cl (stereo not drawn) [Example 17, [3S-(3R*,4aR*,8aR*,2′S*,3′R*)]-2-[2′-Hydroxy-3′-phenylmethyl-4′-aza-5′-oxo-5′-(2″,6″-dichloro-3″-hydroxyphenyl)pentyl] decahydroisoquinoline-3-N-t-butylcarboxamide] | 2.9 µg/mL and 2.5 µg/mL | –
9 | Cc1c(N)cccc1C(=O)NC(Cc1ccccc1)C(O)CN1CC2CCCCC2CC1C(=O)NC(C)(C)C (stereo not drawn) [Example 18, [3S-(3R*,4aR*,8aR*,2′S*,3′R*)]-2-[2′-Hydroxy-3′-phenylmethyl-4′-aza-5′-oxo-5′-(2″-methyl-3″-aminophenyl)pentyl] decahydroisoquinoline-3-N-t-butylcarboxamide] | 0.231 µg/mL | 256 ng/mL (≈ 0.479 µM)
10 | CC(C)c1c(O)cccc1C(=O)NC(Cc1ccccc1)C(O)CN1CC2CCCCC2CC1C(=O)NC(C)(C)C (stereo not drawn) [Example 20, [3S-(3R*,4aR*,8aR*,2′S*,3′R*)]-2-[2′-Hydroxy-3′-phenylmethyl-4′-aza-5′-oxo-5′-(2″-iospropyl-3″-hydroxyphenyl)pentyl] decahydroisoquinoline-3-N-t-butylcarboxamide] | – | 153 ng/mL (≈ 0.271 µM)
11 | CCCCc1c(O)cccc1C(=O)NC(Cc1ccccc1)C(O)CN1CC2CCCCC2CC1C(=O)NC(C)(C)C (stereo not drawn) [Example 21, [3S-(3R*,4aR*,8aR*,2′S*,3′R*)]-2-[2′-Hydroxy-3′-phenylmethyl-4′-aza-5′-oxo-5′-(2″-butyl-3′″-hydroxyphenyl)pentyl] decahydroisoquinoline-3-N-t-butylcarboxamide] | – | 443 ng/mL (≈ 0.767 µM)
12 | CCCc1c(O)cccc1C(=O)NC(Cc1ccccc1)C(O)CN1CC2CCCCC2CC1C(=O)NC(C)(C)C (stereo not drawn) [Example 22, [3S-(3R*,4aR*,8aR*,2′S*,3′R*)]-2-[2′-Hydroxy-3′-phenylmethyl-4′-aza-5′-oxo-5′-(2″-propyl-3″-hydroxyphenyl)pentyl] decahydroisoquinoline-3-N-t-butylcarboxamide] | – | 136 ng/mL (≈ 0.241 µM)
13 | Cc1c(O)cccc1C(=O)NC(Cc1ccccc1)C(O)CN1CC2CCCCC2CC1C(=O)NC(C)(C)C (stereo not drawn) [Example 23, [3S-(3R*,4aR*,8aR*,2′S*,3′R*)]-2-[2′-Hydroxy-3′-phenylmethyl-4′-aza-5′-oxo-5′-(2″-methyl-3″-hydroxyphenyl)pentyl] decahydroisoquinoline-3-N-t-butylcarboxamide] | 0.00862 µg/mL | –
14 | Cc1c(O)cccc1C(=O)NC(CSc1ccc2ccccc2c1)C(O)CN1CC2CCCCC2CC1C(=O)NC(C)(C)C (stereo not drawn) [Example 24, [3S-(3R*,4aR*,8aR*,2′S*,3′R*)]-2-[2′-Hydroxy-3′-(naphth-2-ylthiomethyl)-4′-aza-5′-oxo-5′-(2″-methyl-3″-hydroxyphenyl)pentyl] decahydroisoquinoline-3-N-t-butylcarboxamide] | – | 67 ng/mL (≈ 0.108 µM)
15 | Cc1c(O)cccc1C(=O)N[C@@H](CSc1ccc2ccccc2c1)[C@H](O)CN1CCCC[C@H]1C(=O)NC(C)(C)C [Example 25, [2S-(2R*,2′S*,3′S*)]-1-[2′-Hydroxy-3′-(naphth-2-ylthiomethyl-4′-aza-5′-oxo-5′-(2″-methyl-3″-hydroxyphenyl)pentyl]piperidine-2-N-t-butylcarboxamide] | – | 211 ng/mL (≈ 0.374 µM)
16 | Cc1c(O)cccc1C(=O)N[C@@H](Cc1ccccc1)[C@H](O)CN1CCN(Cc2cccnc2)C[C@H]1C(=O)NC(C)(C)C [Example 26, [2S-(2R*,2′S*,3′R*)]-1-[2′-Hydroxy-3′-phenylmethyl-4′-aza-5′-oxo-5′-(2″-methyl-3″-hydroxyphenyl)pentyl]-4-(pyrid-3′″-ylmethyl) piperazine-2-N-t-butylcarboxamide] | – | 49.7 ng/mL (≈ 0.0866 µM)
17 | [3S-(3R*,4aR*,8aR*,2′S*,3′S*)]-2-[2′-Hydroxy-3′-phenylmethyl-4′-aza-5′-oxo-5′-[2″-methyl-3″-N-(methylsulfonyl)amino-phenyl)]pentyl] decahydroisoguinoline-3-N-t-butylcarboxamide [Example 36] | 2.43 µg/mL and 1.73 µg/mL | –
